Data set [1] has as its target T1, Chemerin-like receptor 1 (Homo sapiens, UniProt Q99788).
T1 sequence (Q99788 whole entry): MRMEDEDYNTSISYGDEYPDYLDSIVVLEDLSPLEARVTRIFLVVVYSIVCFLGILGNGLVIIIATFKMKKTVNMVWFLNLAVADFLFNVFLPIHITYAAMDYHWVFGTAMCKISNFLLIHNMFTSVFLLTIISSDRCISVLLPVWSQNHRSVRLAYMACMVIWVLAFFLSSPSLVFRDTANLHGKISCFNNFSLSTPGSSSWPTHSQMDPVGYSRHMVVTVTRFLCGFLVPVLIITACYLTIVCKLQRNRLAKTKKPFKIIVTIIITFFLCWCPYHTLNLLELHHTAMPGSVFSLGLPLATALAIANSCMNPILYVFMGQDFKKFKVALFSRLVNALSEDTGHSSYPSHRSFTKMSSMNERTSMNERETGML
As to the kind of experiment: Inhibition of human ChemR23 expressed in CAL-1 cells assessed as receptor internalization. It is filed as functional, cell-based, CAL1.

Data set [2] has as its target T1, Chemerin-like receptor 1. As to the kind of experiment: Inhibition of human ChemR23 expressed in CAL-1 cells assessed as reduction in chemerin-induced calcium signaling. Format: functional, cell-based, CAL1.
Data set [3] can be described thus: MRT in cynomolgus monkey at 1 mg/kg, po. Format: ADME, organism-based, Macaca fascicularis. The following applies: in vivo.
A short description of data set [4]: Cmax in cynomolgus monkey at 1 mg/kg, po. The following applies: in vivo. It is filed as ADME, organism-based, Macaca fascicularis. Further details: dose 1 mg/kg, route po.
Data set [5] in a line: Half life in cynomolgus monkey at 1 mg/kg, po. Format: ADME, organism-based, Macaca fascicularis. The following applies: in vivo.
A short description of data set [6]: Drug concentration in cynomolgus monkey plasma at 1 mg/kg, po after 8 hrs. It is filed as ADME, organism-based, Macaca fascicularis.
Data set [7] can be described thus: Tmax in cynomolgus monkey at 1 mg/kg, po. Format: ADME, organism-based, Macaca fascicularis. The following applies: in vivo.
Data set [8] can be described thus: AUC(0 to infinity) in cynomolgus monkey at 1 mg/kg, po. It is filed as ADME, organism-based, Macaca fascicularis. Further details: time infinity, dose 1 mg/kg, route po. The conditions noted are these: in vivo.
In data set [9] the target is T2, Chemerin-like receptor 1 (Homo sapiens) (UniProt Q99788).
T2 sequence (whole entry): T1 sequence (Q99788 whole entry)
The following applies: CAL1.

Data set [10] addresses T2, Chemerin-like receptor 1 (Homo sapiens). The data set is described as follows: Binding affinity to ChemR23 (unknown origin) expressed in HEK293T cells at 40 to 1000 nM by flow cytometric analysis. Format: cell-based. The conditions noted are these: dose 40-1000 nM, DDE = dose-dependent effect.
Data set [11] is described as follows: AUC(0 to infinity) in cynomolgus monkey at 0.3 to 1 mg/kg, po. It is filed as ADME, organism-based, Macaca fascicularis. The following applies: in vivo, dose 0.3-1 mg/kg. Further details: route po.
Data set [12] in a line: Tmax in cynomolgus monkey at 0.3 to 1 mg/kg, po. The conditions noted are these: in vivo, dose 0.3-1 mg/kg. Format: ADME, organism-based, Macaca fascicularis.
Data set [13] can be described thus: Half life in cynomolgus monkey at 0.3 to 1 mg/kg, po. Format: ADME, organism-based, Macaca fascicularis. The conditions noted are these: in vivo, dose 0.3-1 mg/kg.
Data set [14] is described as follows: Half life in cynomolgus monkey at 0.3 mg/kg, po. It is filed as ADME, organism-based, Macaca fascicularis. The following applies: in vivo.
Data set [15] can be described thus: Drug concentration in plasma of cynomolgus monkey at 30 mg/kg, po after 4 hrs. It is filed as ADME, organism-based, Macaca fascicularis.
Data set [16] is described as follows: AUC(0 to infinity) in cynomolgus monkey at 0.3 mg/kg, po. Format: ADME, organism-based, Macaca fascicularis. Further details: time infinity, dose 0.3 mg/kg, route po. The following applies: in vivo.
Data set [17] is described as follows: Cmax in cynomolgus monkey at 0.3 mg/kg, po. Format: ADME, organism-based, Macaca fascicularis. Further details: dose 0.3 mg/kg, route po. The conditions noted are these: in vivo.
Data set [18] is described as follows: Cmax in cynomolgus monkey at 0.3 to 1 mg/kg, po. The following applies: in vivo, dose 0.3-1 mg/kg. It is filed as ADME, organism-based, Macaca fascicularis. Also noted: route po.
The nature of data set [19]: Drug concentration in cynomolgus monkey plasma at 0.3 mg/kg, po after 8 hrs. It is filed as ADME, organism-based, Macaca fascicularis.
The nature of data set [20]: Tmax in cynomolgus monkey at 0.3 mg/kg, po. It is filed as ADME, organism-based, Macaca fascicularis. The following applies: in vivo.
Data set [21] can be described thus: MRT in cynomolgus monkey at 0.3 mg/kg, po. It is filed as ADME, organism-based, Macaca fascicularis. The conditions noted are these: in vivo.
A short description of data set [22]: Drug concentration in plasma of cynomolgus monkey at 30 mg/kg, po after 8 hrs. It is filed as ADME, organism-based, Macaca fascicularis.
Data set [23] can be described thus: Drug concentration in plasma of cynomolgus monkey at 30 mg/kg, po after 6 hrs. Format: ADME, organism-based, Macaca fascicularis.
A short description of data set [24]: MRT in cynomolgus monkey at 0.3 to 1 mg/kg, po. Format: ADME, organism-based, Macaca fascicularis. The conditions noted are these: in vivo, dose 0.3-1 mg/kg.

The values that follow come from ChEMBL document CHEMBL5154705, “Discovery and mechanistic study of thiazole-4-acylsulfonamide derivatives as potent and orally active ChemR23 inhibitors with a long-acting effect in cynomolgus monkeys” (Bioorg Med Chem, 2022).

For orientation: EC50 means the concentration at which the effect is half-maximal. One may read the IC50 as the concentration needed to halve the response being measured. With `C[C@H](c1ccc(-c2cc(Cl)ccc2C(=O)NCCOCCOCCOCCOCCOCCOCCN=[N+]=[N-])cc1)N(CC1CC1)c1nc(C(=O)NS(=O)(=O)C2CC2)c(C2CC2)s1`, the EC50 in data set [1] was determined as 22 nM. Besides, the IC50 in [2] is 12 nM.

A word on the MRT: it is a mean duration of stay, worked out from the concentration-time curve. Usually Cmax stands for the highest concentration seen after dosing. Usually half-life stands for the time in which the quantity being followed falls by half. By Tmax is commonly meant the time from dosing to the highest level. As usually defined, the AUC(0-inf) is total exposure, with the tail of the curve extrapolated. In data set [3], `Cc1ccc(-c2nc(=O)s[nH]2)c(-c2ccc([C@@H](C)N(CC3CC3)c3nc(C(=O)NS(=O)(=O)C4CC4)c(C4CC4)s3)cc2)c1` gave an MRT of 6.5 h. The compound also came in with a Cmax in data set [4] of 4190 ng/mL. Besides, in data set [5], the half-life is 3.2 h. In addition, the concentration at 8 h in [6] came out at 2090 ng/mL. Besides, in [7], the Tmax is 4 h. The compound also came in with an AUC(0-inf) in data set [8] of 39800 ng·h/mL.

For orientation: IC80 means the concentration needed for an effect of 80%. `CONC(=O)c1ccc(C)cc1-c1ccc([C@@H](C)N(CC2CC2)c2nc(C(=O)NS(=O)(=O)C3CC3)c(C3CC3)s2)cc1` registered an MRT in data set [3] of 5.9 h. In [9], this compound returned an IC80 of 38 nM. For the same compound, the highest level in data set [4] (Cmax) was 3480 ng/mL. Further, the half-life in data set [5] is 2.9 h. This compound also yielded a concentration at 8 h in [6] of 1010 ng/mL. The time of peak concentration (Tmax) in [7] was found to be 3.3 h. Also, in [8], the AUC(0-inf) turned out to be 24000 ng·h/mL.

For `C[C@H](c1ccc(-c2cc(Cl)ccc2C(=O)NCCOCCOCCOCCOCCOCCOCCn2nnc3c2-c2ccccc2N(C(=O)CCNC(=O)CCOCCOCCOCCOCCNC(=O)c2ccc(C(=O)[O-])c(-c4c5ccc(=[N+](C)C)cc-5oc5cc(N(C)C)ccc45)c2)Cc2ccccc2-3)cc1)N(CC1CC1)c1nc(C(=O)NS(=O)(=O)C2CC2)c(C2CC2)s1`, in data set [10], the Activity entry was “Dde”.

Take `CCNC(=O)CCC(=O)N1Cc2ccccc2-c2nnn(CCOCCOCCOCCOCCOCCOCCNC(=O)c3ccc(Cl)cc3-c3ccc([C@@H](C)N(CC4CC4)c4nc(C(=O)NS(=O)(=O)C5CC5)c(C5CC5)s4)cc3)c2-c2ccccc21`: in data set [2], the IC50 was 9.1 nM.

Consider `CNC(=O)c1ccc(C)cc1-c1ccc([C@@H](C)N(CC2CC2)c2nc(C(=O)NS(=O)(=O)C3CC3)c(C3CC3)s2)cc1`, for which the MRT in [3] worked out at 6.1 h. Further, it took 57 nM to reach the 80% level in data set [9] (IC80). Also, the Cmax in data set [4] was determined as 2810 ng/mL. The same compound had a half-life in data set [5] of 3 h. In addition, the concentration at 8 h in [6] came to 996 ng/mL. The Tmax in [7] is 4 h. Further, the area under the curve AUC(0-inf) in data set [8] came out at 21400 ng·h/mL.

On to `Cc1ccc(-c2nc(=O)o[nH]2)c(-c2ccc([C@@H](C)N(CC3CC3)c3nc(C(=O)NS(=O)(=O)C4CC4)c(C4CC4)s3)cc2)c1`, for which the figures for the area under the curve AUC(0-inf) in data set [11] and in data set [16] were 53700 ng·h/mL and 10200 ng·h/mL, respectively. Also, the Tmax in data set [12] amounted to 2.7 h; in data set [20] it was 3.3 h. The half-life in [13] was 3.1 h; in [14], 3.3 h. Further, in [15], the concentration at 4 h was determined as 332 µM. Also, the Cmax in [17] worked out at 1370 ng/mL; in data set [18], 6960 ng/mL. Also, the figures for the concentration at 8 h in data set [19], in data set [6] and in data set [22] were 403 ng/mL, 2580 ng/mL and 177 µM, respectively. In addition, the MRT was 5.4 h in [21] and 6 h in [24]. In [23], this compound yielded a concentration at 6 h of 233 µM.

In the case of `C[C@H](c1ccc(-c2cc(Cl)ccc2C(=O)NCCOCCOCCOCCOCCOCCOCCn2nnc3c2-c2ccccc2N(C(=O)CCNC(=O)CCOCCOCCOCCOCCNC(=O)CCCC[C@@H]2SC[C@@H]4NC(=O)N[C@@H]42)Cc2ccccc2-3)cc1)N(CC1CC1)c1nc(C(=O)NS(=O)(=O)C2CC2)c(C2CC2)s1`, the IC50 in data set [2] stood at 14 nM.

For `C[C@H](c1ccc(-c2cc(Cl)ccc2C(=O)NCCOCCOCCOCCOCCOCCOCCOCCOCCOCCOCCOCCOCCOCCOCCOCCOCCOCCOCCOCOCCOCCOCCOCCN=[N+]=[N-])cc1)N(CC1CC1)c1nc(C(=O)NS(=O)(=O)C2CC2)c(C2CC2)s1`, in data set [1], the EC50 turned out to be 380 nM. Besides, in data set [2], the IC50 is 100 nM.
